This note sets out measurements from ChEMBL document CHEMBL1154879, “Discovery of (thienopyrimidin-2-yl)aminopyrimidines as potent, selective, and orally available pan-PI3-kinase and dual pan-PI3-kinase/mTOR inhibitors for the treatment of cancer” (J Med Chem, 2010).

Molecules are shown by their SMILES. pIC50: −log10 of the molar value.

Data set [1] can be described thus: Clearance in Sprague-Dawley rat liver microsomes. The data set is classed as ADME, Microsome. Background: Microsomes from liver hold many membrane-bound enzymes, among them those of drug oxidation.
Data set [2] in a line: Oral bioavailability in Sprague-Dawley rat at 2 mg/kg. The data set is classed as ADME, organism-based. The following applies: in vivo.
For data set [3], the target named is Phosphatidylinositol 4,5-bisphosphate 3-kinase catalytic subunit alpha isoform (Homo sapiens, UniProt P42336).
Data set [4] is described as follows: Clearance in Sprague-Dawley rat at 1 mg/kg, iv. The data set is classed as ADME, organism-based. Also noted: dose 1 mg/kg, route intravenous. The note with it: in vivo.
Data set [5] has as its system PC-3. Description: Antiproliferative activity against human PC3 cells deficient in PTEN in after 3 to 4 days. The data set is classed as functional, cell-based.
Data set [6] can be described thus: Antiproliferative activity against human MCF7.1 cells expressing PI3Kalpha mutant after 3 to 4 days. The data set is classed as functional, cell-based.
Data set [7] has as its target Phosphatidylinositol 4,5-bisphosphate 3-kinase catalytic subunit beta isoform (Homo sapiens, UniProt P42338). In words: Inhibition of recombinant PI3Kbeta assessed as PIP3 product formation by fluorescence polarization assay. (Fluorescence polarisation rises when a labelled molecule tumbles more slowly, as on binding a larger partner.)
Data set [8] deals with Phosphatidylinositol 4,5-bisphosphate 3-kinase catalytic subunit gamma isoform (Homo sapiens, UniProt P48736).
The target in data set [9] is T1, Phosphatidylinositol 4,5-bisphosphate 3-kinase catalytic subunit delta isoform (Homo sapiens, UniProt O00329).
T1 sequence (O00329 whole entry): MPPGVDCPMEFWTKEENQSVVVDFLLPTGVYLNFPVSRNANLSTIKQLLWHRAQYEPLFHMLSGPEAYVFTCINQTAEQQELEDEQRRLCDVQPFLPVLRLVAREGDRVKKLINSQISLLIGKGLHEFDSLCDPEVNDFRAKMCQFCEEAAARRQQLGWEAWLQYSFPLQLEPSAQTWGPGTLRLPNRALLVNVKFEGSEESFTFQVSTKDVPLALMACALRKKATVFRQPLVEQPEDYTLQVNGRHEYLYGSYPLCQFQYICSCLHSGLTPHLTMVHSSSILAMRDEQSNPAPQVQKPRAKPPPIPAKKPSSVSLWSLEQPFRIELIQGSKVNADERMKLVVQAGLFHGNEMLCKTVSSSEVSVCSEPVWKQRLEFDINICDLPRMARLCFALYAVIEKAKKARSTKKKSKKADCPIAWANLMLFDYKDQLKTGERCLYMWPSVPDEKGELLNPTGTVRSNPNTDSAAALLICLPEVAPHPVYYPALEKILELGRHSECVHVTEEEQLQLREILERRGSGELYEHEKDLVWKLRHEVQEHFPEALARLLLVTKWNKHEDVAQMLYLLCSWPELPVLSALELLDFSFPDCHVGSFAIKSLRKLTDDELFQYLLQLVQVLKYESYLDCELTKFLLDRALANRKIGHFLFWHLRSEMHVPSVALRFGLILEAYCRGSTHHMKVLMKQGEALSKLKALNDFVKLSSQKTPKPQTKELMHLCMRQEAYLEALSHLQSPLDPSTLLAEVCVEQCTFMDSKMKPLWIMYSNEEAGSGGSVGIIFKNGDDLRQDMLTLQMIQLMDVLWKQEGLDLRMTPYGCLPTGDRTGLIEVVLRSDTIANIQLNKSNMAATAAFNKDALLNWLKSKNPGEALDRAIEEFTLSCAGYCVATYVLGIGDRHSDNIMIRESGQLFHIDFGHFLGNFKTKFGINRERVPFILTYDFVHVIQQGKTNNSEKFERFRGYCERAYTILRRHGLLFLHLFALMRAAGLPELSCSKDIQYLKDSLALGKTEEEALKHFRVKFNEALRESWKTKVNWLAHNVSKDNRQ

Data set [10] has as its target Serine/threonine-protein kinase mTOR (Homo sapiens, UniProt P42345).
Data set [11] is described as follows: Clearance in Beagle dog at 1 mg/kg, iv. The data set is classed as ADME, organism-based, Canis lupus familiaris. Set-up: dose 1 mg/kg, route intravenous. The note with it: in vivo.
A short description of data set [12]: Oral bioavailability in Sprague-Dawley rat at 5 mg/kg, po. The data set is classed as ADME, organism-based. The following applies: in vivo.
Data set [13] in a line: Volume of distribution at steady state in Sprague-Dawley rat at 1 mg/kg, iv. Also noted: dose 1 mg/kg, route intravenous. The note with it: in vivo, read-out: Vdss. Type of data set: ADME, organism-based.

Sequence of Phosphatidylinositol 4,5-bisphosphate 3-kinase catalytic subunit alpha isoform (P42336 whole entry, canonical isoform): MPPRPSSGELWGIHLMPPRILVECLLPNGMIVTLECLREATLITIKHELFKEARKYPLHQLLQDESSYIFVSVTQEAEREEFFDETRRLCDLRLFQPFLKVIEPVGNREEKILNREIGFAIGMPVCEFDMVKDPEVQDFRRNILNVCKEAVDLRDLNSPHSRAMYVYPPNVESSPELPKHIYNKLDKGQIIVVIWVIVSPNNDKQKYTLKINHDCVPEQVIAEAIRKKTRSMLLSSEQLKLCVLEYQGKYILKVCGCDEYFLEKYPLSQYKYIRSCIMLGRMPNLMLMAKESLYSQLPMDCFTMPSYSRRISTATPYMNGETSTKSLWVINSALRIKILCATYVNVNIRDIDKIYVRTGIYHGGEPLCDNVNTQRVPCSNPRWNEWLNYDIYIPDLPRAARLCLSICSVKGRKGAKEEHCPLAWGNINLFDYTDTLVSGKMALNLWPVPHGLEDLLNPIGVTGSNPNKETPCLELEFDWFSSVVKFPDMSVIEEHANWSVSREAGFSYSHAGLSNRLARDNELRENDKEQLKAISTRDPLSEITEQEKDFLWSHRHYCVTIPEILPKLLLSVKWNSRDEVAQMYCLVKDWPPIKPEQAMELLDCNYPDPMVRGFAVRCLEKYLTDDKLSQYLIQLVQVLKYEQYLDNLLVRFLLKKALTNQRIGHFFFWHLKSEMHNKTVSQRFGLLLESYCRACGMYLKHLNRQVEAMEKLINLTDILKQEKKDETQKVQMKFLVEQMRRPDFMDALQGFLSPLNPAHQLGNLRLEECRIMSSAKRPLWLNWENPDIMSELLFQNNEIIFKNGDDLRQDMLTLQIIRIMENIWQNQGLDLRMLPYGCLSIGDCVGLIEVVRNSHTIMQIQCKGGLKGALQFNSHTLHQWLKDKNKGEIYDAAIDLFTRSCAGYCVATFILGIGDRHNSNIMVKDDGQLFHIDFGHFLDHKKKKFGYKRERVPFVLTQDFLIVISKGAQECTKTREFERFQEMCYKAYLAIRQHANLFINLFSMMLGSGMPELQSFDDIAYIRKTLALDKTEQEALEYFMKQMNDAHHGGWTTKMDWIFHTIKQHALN
Sequence of Phosphatidylinositol 4,5-bisphosphate 3-kinase catalytic subunit beta isoform (P42338 whole entry, canonical isoform): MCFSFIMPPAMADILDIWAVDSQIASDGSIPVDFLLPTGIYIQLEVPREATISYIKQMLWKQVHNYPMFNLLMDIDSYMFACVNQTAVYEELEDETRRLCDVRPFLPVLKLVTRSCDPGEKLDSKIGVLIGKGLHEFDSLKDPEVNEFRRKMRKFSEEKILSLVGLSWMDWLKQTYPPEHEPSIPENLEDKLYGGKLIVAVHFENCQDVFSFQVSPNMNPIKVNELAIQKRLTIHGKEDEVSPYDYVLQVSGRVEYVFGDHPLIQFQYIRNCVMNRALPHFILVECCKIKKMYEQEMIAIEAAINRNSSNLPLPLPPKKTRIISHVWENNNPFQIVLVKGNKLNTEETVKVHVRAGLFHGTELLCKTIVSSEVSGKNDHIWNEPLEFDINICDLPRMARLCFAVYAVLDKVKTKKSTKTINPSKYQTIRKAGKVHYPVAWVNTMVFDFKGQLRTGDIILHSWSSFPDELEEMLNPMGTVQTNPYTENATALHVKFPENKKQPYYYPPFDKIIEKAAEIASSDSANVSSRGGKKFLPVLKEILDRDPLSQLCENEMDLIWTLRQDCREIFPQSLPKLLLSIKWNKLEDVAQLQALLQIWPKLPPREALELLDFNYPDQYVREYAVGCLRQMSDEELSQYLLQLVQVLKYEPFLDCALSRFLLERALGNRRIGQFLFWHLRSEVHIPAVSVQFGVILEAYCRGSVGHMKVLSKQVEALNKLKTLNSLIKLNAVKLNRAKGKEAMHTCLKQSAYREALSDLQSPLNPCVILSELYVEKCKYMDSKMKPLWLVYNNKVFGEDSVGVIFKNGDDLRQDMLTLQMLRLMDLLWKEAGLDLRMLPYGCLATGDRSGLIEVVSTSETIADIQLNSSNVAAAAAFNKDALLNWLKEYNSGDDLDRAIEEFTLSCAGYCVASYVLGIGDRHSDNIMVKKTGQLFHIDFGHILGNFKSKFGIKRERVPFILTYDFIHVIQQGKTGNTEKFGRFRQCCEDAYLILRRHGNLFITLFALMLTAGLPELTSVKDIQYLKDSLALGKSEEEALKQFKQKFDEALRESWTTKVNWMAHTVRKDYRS
Sequence of Phosphatidylinositol 4,5-bisphosphate 3-kinase catalytic subunit gamma isoform (P48736 whole entry, canonical isoform): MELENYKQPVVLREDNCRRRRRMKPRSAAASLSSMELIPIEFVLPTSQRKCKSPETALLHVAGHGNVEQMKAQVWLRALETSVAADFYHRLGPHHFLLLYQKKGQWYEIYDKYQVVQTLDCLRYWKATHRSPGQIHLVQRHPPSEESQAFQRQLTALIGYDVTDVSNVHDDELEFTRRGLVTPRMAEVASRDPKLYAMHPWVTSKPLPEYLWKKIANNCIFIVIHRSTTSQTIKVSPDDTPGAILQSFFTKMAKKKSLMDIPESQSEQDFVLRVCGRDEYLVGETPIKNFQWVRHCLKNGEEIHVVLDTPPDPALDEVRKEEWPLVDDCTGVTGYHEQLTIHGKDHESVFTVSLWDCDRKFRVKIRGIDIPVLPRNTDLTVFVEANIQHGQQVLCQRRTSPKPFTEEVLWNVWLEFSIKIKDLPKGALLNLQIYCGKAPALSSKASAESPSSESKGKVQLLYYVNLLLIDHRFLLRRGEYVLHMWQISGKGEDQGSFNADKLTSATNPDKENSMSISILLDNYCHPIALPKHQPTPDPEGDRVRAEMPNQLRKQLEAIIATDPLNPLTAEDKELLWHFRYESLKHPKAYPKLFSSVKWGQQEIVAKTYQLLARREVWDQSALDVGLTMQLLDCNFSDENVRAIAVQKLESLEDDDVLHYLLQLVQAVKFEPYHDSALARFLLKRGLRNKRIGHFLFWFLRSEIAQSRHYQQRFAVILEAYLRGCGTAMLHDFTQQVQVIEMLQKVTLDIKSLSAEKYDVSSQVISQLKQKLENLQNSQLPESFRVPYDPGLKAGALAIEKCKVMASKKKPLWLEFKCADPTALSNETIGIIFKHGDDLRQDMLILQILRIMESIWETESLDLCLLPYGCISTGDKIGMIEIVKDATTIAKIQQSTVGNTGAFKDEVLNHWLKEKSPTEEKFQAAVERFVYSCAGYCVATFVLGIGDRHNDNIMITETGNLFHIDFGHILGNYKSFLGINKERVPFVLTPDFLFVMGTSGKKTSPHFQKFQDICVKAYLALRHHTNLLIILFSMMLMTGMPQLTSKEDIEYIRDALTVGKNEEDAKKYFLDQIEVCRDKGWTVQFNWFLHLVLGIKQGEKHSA

In the case of `CC(O)c1cc2nc(-c3cccc4[nH]ncc34)nc(N3CCOCC3)c2s1` (configuration not stated), the intrinsic clearance (CLint scaled) (commonly the capacity of the preparation to metabolise the compound, expressed as a volume cleared per time) in data set [1] was found to be 95 mL/min/kg. In [2], the bioavailability (usually dose-corrected exposure relative to a reference, in per cent) was 17%. The pIC50 (commonly the negative decadic logarithm of the IC50, by convention in mol/L) was 7.55 in data set [3] and 5.96 in data set [5]. For the same compound, in data set [4], the clearance (in general, the volume of plasma or blood freed of the substance per unit of time) is 101 mL/min/kg.
Turning to `CS(=O)(=O)N1CCN(Cc2cc3nc(-c4cccc5[nH]ncc45)nc(N4CCOCC4)c3s2)CC1` [PICTILISIB], the negative-log IC50 (pIC50) in data set [6] was 6.47; in [5], 6.41.
Regarding `CS(=O)(=O)N1CCN(Cc2cc3nc(-c4ccncc4)nc(N4CCOCC4)c3s2)CC1`, the negative-log IC50 (pIC50) in data set [7] is 5.27; in data set [3], 5.54; in [8], 5.29; in data set [9], 6.51.
On to `CS(=O)(=O)N1CCN(Cc2cc3nc(-c4cccnc4)nc(N4CCOCC4)c3s2)CC1`, for which the pIC50 is 7.85 in [7]; 7.68 in data set [3]; 7.72 in [8]; 5.85 in data set [6]; 5.74 in [5]; 7.92 in data set [9].
`CS(=O)(=O)N1CCN(Cc2cc3nc(-c4cccc(O)c4)nc(N4CCOCC4)c3s2)CC1`: the pIC50 was 7.96 in [7]; 8.80 in [3]; 7.70 in data set [8]; 7.44 in data set [6]; 7.68 in [5]; 9.05 in data set [9].
`CC(=O)NCc1cc2nc(-c3cccc4[nH]ncc34)nc(N3CCOCC3)c2s1`: the CLint scaled in data set [1] came out at 40 mL/min/kg. Further, in [2], the bioavailability was found to be 34%. The negative logarithm of the IC50 (pIC50) in data set [3] was 7.80; in [5], 5.82. Also, in [4], the clearance stood at 86 mL/min/kg.
Regarding `OCc1cc2nc(-c3cccc4[nH]ncc34)nc(N3CCOCC3)c2s1`, in data set [1], the CLint scaled turned out to be 170 mL/min/kg. In addition, the negative logarithm of the IC50 (pIC50) in [3] was 7.54; in data set [5], 5.92.
Take `CS(=O)(=O)N1CCN(Cc2cc3nc(-c4ccc(N)cc4)nc(N4CCOCC4)c3s2)CC1`: the negative logarithm of the IC50 (pIC50) is 5.85 in data set [7]; 6.62 in data set [3]; 5.89 in [8]; 5.57 in [6]; 5.92 in [5]; 7.00 in data set [9].
As for `CC(C)(O)c1cc2nc(-c3cccc4[nH]ncc34)nc(N3CCOCC3)c2s1`, the pIC50 is 6.89 in data set [10], 7.66 in [3], 5.85 in [6] and 5.85 in data set [5]. Also, the intrinsic metabolic clearance (CLint scaled) in [1] came out at 40 mL/min/kg. This compound also displayed a bioavailability in data set [2] of 29%. Moreover, in [4], the clearance turned out to be 16 mL/min/kg.
In the case of `CS(=O)(=O)N1CCN(Cc2cc3nc(-c4ccc(N)nc4)nc(N4CCOCC4)c3s2)CC1`, the clearance in [11] amounted to 16 mL/min/kg. The negative logarithm of the IC50 (pIC50) in data set [7] is 7.22; in data set [3], 8.26; in data set [6] it was 6.70; in data set [5], 6.57; in data set [9], 8.18.
As to `CS(=O)(=O)N1CCN(Cc2cc3nc(-c4cccc(CO)c4)nc(N4CCOCC4)c3s2)CC1`, the pIC50 was 8.74 in [3], 6.49 in data set [6], 7.12 in data set [5] and 8.85 in data set [9].
In the case of `CS(=O)(=O)N1CCN(Cc2cc3nc(-c4cnc(N)nc4)nc(N4CCOCC4)c3s2)CC1`, the results for the clearance in data set [11] and in [4] were 22 mL/min/kg and 24 mL/min/kg, respectively. Further, the pIC50 in [7] is 7.42; in data set [10], 7.54; in data set [8] it was 8.08; in [5], 6.52; in data set [9], 8.62. In addition, the bioavailability in data set [12] amounted to 75%. In data set [13], the Vd came out at 5.6 L/kg.
With `CS(=O)(=O)N1CCN(Cc2cc3nc(-c4ccccc4)nc(N4CCOCC4)c3s2)CC1`, the pIC50 in [3] is 6.37; in data set [6], 5.43; in data set [5], 5.43.
`Cc1nc(N)ncc1-c1nc(N2CCOCC2)c2sc(CN3CCN(S(C)(=O)=O)CC3)cc2n1`: the pIC50 in data set [7] was 8.21; in data set [10], 6.06; in [3], 8.96; in [6], 6.54; in [5] it was 6.64; in data set [9] it was 9.15.
